The record followed here is patent publication US20170050894A1, “FERTILIZER MIXTURE CONTAINING NITRIFICATION INHIBITOR” (EUROCHEM AGRO GMBH, priority 2013, published 2017).

The data set is described as follows: Storage stability in an accelerated test (open glass beaker, 40 days at 30° C.). It is filed as physicochemical. As to conditions: for Analytical value (concentration of nitrification inhibitor on the mineral fertilizer): Value at start. As to the method: The concentration of nitrification inhibitor on the mineral fertilizer was determined before, during and after storage at two different depths in the bed, and the loss of nitrification inhibitor was ascertained. In each case about 10 to 30 g of treated mineral fertilizer were stored. The concentration of DMPP at the start was 1.028 g/kg fertilizer; for 2-(N-3,4-dimethylpyrazole)succinic acid, the figure was 1.244 g/kg fertilizer.
After 20 and 40 days, samples were taken from a surface region of the fertilizer bed (0 to 5 cm sampling depth and >5 cm sampling depth).
The results are shown in table 1 below, where DMPSA denotes 2-(N-3,4-dimethylpyrazole)succinic acid.

Consider `Cc1c[nH]nc1C.O=P(O)(O)O` [DMPP, 3,4-dimethylpyrazole phosphate, reference compound], for which the “Analytical value (concentration of nitrification inhibitor on the mineral fertilizer)” value was found to be 1.028 g/kg.
As to `Cc1cn(C(CC(=O)O)C(=O)O)nc1C` (stereo not drawn) [DMPSA, 2-(N-3,4-dimethylpyrazole)succinic acid], the “Analytical value (concentration of nitrification inhibitor on the mineral fertilizer)” value is listed as 1.244 g/kg. Under “storage over 20 to 40 days on CAN”, the “loss of nitrification inhibitor on storage, compared with DMPP” value is given as “much lower”.
